{"source": "paper PMC12444507", "about": "(ACS Omega, 2025)", "key": {"[1]": {"system": "SARS-CoV-2 strain JPN/TY/WK-521 (SARS-CoV-2^WK-521, ancestral Wuhan strain)", "conditions": "cited from earlier work"}, "[2]": {"system": "SARS-CoV-2^WK-521 infected VeroE6 cells"}, "[3]": {"system": "SARS-CoV-2 strain JPN/TY/WK-521 (SARS-CoV-2^WK-521, ancestral Wuhan strain)", "assay_type": "cell-based"}}}
{"smiles": "CC(C)(C)[C@H](NC(=O)C(F)(F)F)C(=O)N1C[C@H]2[C@@H]([C@H]1C(=O)N[C@H](C#N)C[C@@H]1CCNC1=O)C2(C)C", "note": "[nirmatrelvir (1), nirmatrelvir]", "values": [{"measurement": "EC50", "setting": "[1]", "value": "770 ± 180", "unit": "nM"}]}
{"smiles": "CC(C)(C)[C@H](NC(=O)C(F)(F)F)C(=O)N1C[C@H]2[C@@H]([C@H]1C(=O)N[C@@H](C[C@@H]1CCNC1=O)C(=O)c1nc3cc(F)ccc3s1)C2(C)C", "note": "[TKB272 (8)]", "values": [{"measurement": "revertant mutagenicity", "setting": "bacterial mutation", "value": "no revertant mutagenicity"}, {"measurement": "cytotoxicity in immunostaining experiments", "setting": "[2]", "value": "no significant cytotoxicity"}]}
{"smiles": "CC(C)(C)[C@H](NC(=O)C(F)(F)F)C(=O)N1C[C@H]2[C@@H]([C@H]1C(=O)N[C@@H](C[C@@H]1CCNC1=O)C(=O)c1nc3c(Br)c(F)ccc3s1)C2(C)C", "note": "[Compound 15]", "values": [{"measurement": "lower potency than TKB272 (8)", "setting": "[3]", "value": "approximately 3 fold"}]}
